In ChEMBL document CHEMBL1201862, “PubChem BioAssay data set” (2004):
The source made the active and inactive calls.

Experiments:
[1] = Luminescence Cell-Based Dose Response to Identify Activators of Luciferase Translation or Activity in H4-C Neuroglioblastoma Cells. [Related pubchem assays: 1829 (Project Summary), 1814 (Primary HTS)]; type: functional
[2] = Luminescence Cell-Based Dose Confirmation to Identify Activators of 5'UTR Stem-Loop Driven Alpha-Synuclein mRNA Translation in H4 Neuroglioblastoma Cells. [Related pubchem assays: 1829 (Project Summary), 1814 (Primary HTS)]; type: functional
H4 = assay: Luminescence Cell-Based Dose Response HTS to Identify Activators of 5'UTR Stem-Loop Driven Prion Protein mRNA Translation in H4 Neuroglioblastoma Cells. [Related pubchem assays: 1829 (Project Summary), 1814 (Primary HTS)]; type: functional; conditions: Homo sapiens
[3] = Luminescence Cell-Based Dose Response HTS to Identify Activators of Luciferase Translation or Activity in H4 […] Cells. [Related pubchem assays: 1829 (Project Summary), 1814 (Primary HTS)]; type: functional
[4] = Luminescence Cell-Based Dose Response to Identify Activators of 5'UTR Stem-Loop Driven Prion Protein mRNA Translation in H4-C Neuroglioblastoma Cells. [Related pubchem assays: 1829 (Project Summary), 1814 (Primary HTS)]; type: functional
[5] = biological target: Lytic switch protein BZLF1 (Epstein-Barr virus (strain B95-8) (HHV-4) (Human herpesvirus 4), UniProt P03206); assay: inhibition of BZLF1 ZTA DNA binding – biochemical, fluorescence polarization, Epstein-Barr virus, 1536-well, counter-screen for EBNA-1 inhibitor project, dose response (AID 2377); design: species or system human gammaherpesvirus 4;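 also: fluorescence polarization of Cy5-labelled ZRE DNA probe bound by purified Zta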
Sequence of Lytic switch protein BZLF1 (P03206 whole entry): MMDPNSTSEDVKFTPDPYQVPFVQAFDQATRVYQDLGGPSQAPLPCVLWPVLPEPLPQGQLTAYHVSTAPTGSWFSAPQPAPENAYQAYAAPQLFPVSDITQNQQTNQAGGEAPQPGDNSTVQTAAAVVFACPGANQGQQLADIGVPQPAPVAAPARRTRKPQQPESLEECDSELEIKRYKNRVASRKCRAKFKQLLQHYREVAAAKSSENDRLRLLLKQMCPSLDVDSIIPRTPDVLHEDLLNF

[6] = biological target: Epstein-Barr nuclear antigen 1 (Epstein-Barr virus (strain B95-8) (HHV-4) (Human herpesvirus 4), UniProt P03211); assay: inhibition of EBV nuclear antigen 1 DNA binding – biochemical, fluorescence polarization, 1536-well, dose response (AID 2381); design: species or system human gammaherpesvirus 4;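 also: fluorescence polarization of a Cy5 DNA probe bound by EBNA-1 protein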
Sequence of Epstein-Barr nuclear antigen 1 (P03211 whole entry): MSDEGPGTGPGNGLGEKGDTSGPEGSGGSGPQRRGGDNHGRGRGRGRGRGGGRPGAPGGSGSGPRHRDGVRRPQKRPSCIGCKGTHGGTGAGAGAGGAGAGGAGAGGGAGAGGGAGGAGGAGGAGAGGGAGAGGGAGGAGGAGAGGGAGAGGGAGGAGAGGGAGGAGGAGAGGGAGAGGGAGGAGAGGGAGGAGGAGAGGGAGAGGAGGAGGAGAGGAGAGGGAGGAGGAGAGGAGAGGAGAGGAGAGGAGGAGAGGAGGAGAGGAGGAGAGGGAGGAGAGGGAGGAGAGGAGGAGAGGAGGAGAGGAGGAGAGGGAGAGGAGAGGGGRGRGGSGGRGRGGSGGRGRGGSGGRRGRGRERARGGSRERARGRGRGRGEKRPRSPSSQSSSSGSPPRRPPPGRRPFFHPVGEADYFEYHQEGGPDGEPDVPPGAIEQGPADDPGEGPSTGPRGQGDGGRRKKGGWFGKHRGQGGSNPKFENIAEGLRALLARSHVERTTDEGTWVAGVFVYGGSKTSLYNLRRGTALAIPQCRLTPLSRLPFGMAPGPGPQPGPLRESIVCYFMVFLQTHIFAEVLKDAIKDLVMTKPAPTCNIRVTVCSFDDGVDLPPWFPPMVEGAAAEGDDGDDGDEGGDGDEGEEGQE

Cytochrome P450 2C9 = Cytochrome P450 2C9 (Homo sapiens, UniProt P11712)
Sequence of Cytochrome P450 2C9 (P11712 whole entry): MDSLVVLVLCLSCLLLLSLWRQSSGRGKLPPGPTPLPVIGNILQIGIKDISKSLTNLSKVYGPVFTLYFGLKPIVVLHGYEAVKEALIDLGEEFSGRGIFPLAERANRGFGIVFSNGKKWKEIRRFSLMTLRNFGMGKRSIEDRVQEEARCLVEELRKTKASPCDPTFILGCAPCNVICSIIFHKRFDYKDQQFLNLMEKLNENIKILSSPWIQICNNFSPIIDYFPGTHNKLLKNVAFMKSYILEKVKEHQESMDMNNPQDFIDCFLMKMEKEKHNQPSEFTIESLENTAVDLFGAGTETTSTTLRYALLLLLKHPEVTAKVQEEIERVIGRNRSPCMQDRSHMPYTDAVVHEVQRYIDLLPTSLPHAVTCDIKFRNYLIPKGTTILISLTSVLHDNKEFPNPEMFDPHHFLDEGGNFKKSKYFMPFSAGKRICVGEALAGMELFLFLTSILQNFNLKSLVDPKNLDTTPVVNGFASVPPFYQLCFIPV

Procathepsin L = Procathepsin L (Homo sapiens, UniProt P07711); assay: CTSL1 protease inhibition – biochemical, QFRET, 1536-well, counter-screen for M1/M17 aminopeptidase inhibitor project, dose response (AID 2214)
Sequence of Procathepsin L (P07711 whole entry): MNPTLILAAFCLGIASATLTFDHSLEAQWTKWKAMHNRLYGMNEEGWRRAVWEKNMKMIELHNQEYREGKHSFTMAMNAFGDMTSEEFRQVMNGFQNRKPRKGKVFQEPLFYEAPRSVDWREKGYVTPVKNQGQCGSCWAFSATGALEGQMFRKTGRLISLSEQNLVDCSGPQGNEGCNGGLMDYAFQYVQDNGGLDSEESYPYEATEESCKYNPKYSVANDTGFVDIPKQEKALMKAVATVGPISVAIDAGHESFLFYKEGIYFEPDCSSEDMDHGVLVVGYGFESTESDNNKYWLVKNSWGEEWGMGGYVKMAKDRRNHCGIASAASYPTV

Aspartyl aminopeptidase = Aspartyl aminopeptidase (Plasmodium falciparum 3D7, UniProt Q8I2J3); assay: Counterscreen for inhibitors of M1 and M17 aminopeptidases: QFRET-based biochemical high throughput dose response assay for inhibitors of the Plasmodium falciparum M18 Aspartyl Aminopeptidase (PFM18AAP). [Related PubChem assays: 1619 (Screening assay (M17LAP inhibitors).), 1445 (Screening assay (M1AAP inhibitors).)]
Sequence of Aspartyl aminopeptidase (Q8I2J3 whole entry): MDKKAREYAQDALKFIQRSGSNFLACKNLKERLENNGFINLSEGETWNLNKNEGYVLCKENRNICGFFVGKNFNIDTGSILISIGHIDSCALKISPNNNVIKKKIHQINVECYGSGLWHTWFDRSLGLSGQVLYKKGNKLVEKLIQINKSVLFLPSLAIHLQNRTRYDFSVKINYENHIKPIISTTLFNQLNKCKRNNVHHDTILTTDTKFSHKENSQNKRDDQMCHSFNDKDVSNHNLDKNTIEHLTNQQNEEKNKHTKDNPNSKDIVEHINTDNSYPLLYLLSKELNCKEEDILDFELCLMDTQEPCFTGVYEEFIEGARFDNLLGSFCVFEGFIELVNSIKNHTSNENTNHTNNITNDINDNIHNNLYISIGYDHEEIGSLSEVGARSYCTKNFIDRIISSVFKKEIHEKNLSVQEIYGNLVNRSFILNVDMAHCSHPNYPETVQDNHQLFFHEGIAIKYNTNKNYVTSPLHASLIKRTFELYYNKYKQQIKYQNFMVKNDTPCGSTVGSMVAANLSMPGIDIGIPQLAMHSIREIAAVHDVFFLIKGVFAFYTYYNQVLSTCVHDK

Leucine aminopeptidase = biological target: T1, Leucine aminopeptidase (Plasmodium falciparum 3D7, UniProt Q8IL11); assay: P. falciparum M17LAP inhibitors, primary screen, biochemical, fluorogenic H-Leu-NHMec substrate, 1536-well (AID 1619); type: functional
T1 sequence (Q8IL11 whole entry): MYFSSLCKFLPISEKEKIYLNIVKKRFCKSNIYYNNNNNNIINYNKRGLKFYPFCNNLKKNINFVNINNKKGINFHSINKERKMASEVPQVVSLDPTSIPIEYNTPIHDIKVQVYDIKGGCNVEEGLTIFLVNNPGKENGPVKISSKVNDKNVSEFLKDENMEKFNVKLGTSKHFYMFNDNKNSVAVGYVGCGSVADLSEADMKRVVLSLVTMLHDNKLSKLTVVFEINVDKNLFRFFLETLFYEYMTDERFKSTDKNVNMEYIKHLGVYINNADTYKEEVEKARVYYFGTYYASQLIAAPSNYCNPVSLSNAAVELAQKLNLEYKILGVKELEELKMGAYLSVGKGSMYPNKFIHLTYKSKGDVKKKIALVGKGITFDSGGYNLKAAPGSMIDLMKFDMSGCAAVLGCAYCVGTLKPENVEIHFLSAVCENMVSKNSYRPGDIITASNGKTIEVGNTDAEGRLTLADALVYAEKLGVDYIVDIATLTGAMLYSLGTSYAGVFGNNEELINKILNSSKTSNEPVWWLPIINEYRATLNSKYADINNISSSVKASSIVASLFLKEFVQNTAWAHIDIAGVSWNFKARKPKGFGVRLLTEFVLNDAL

Cytochrome P450 2C19 = Cytochrome P450 2C19 (Homo sapiens, UniProt P33261); assay: Cytochrome panel assay with activity outcomes. Panel member name: p450-cyp2c19 Compounds with AC50 equal or less than 10 uM are considered active; type: functional; conditions: read-out: AC50
Sequence of Cytochrome P450 2C19 (P33261 whole entry): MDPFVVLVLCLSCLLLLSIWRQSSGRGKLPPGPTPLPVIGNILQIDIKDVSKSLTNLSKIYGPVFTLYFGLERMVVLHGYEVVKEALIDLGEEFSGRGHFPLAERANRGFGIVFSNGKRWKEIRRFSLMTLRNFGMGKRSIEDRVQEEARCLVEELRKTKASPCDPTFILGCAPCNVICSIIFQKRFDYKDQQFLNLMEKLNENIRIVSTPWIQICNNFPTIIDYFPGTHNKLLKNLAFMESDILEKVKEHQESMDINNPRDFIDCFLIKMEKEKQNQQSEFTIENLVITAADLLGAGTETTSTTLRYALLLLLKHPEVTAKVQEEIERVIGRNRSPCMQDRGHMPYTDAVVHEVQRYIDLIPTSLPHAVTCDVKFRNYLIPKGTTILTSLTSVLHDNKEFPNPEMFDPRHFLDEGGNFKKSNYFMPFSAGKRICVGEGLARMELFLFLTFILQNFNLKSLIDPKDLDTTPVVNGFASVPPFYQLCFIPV

[7] = biological target: Ubiquitin carboxyl-terminal hydrolase BAP1 (Homo sapiens, UniProt Q92560); assay: inhibition of BAP1 ubiquitin hydrolase activity – biochemical, dose response (AID 714); type: functional
[8] = biological target: Voltage-dependent T-type calcium channel subunit alpha-1H (Homo sapiens, UniProt O95180); type: functional;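 also: channel activity triggered by adding a high calcium stimulation buffer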
[9] = biological target: Eukaryotic translation initiation factor 4E (Mus musculus, UniProt P63073); assay: blockers of eIF4G binding by eIF4E – biochemical, TR-FRET, dose response (AID 855); type: functional;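 also: potency for disrupting eIF4E binding to eIF4GI seen as loss of FRET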
Sequence of Eukaryotic translation initiation factor 4E (P63073 whole entry): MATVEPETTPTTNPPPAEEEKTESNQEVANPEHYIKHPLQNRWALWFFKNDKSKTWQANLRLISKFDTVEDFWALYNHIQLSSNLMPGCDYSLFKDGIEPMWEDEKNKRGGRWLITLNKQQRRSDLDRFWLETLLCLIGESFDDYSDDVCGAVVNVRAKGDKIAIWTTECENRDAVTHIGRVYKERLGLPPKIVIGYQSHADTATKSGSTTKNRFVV

[10] = biological target: T2, Dual specificity protein phosphatase 6 (Rattus norvegicus, UniProt Q64346); assay: inhibition of rat DUSP6 enzyme activity – biochemical, in vitro, primary screen (AID 425)
T2 sequence (Q64346 whole entry): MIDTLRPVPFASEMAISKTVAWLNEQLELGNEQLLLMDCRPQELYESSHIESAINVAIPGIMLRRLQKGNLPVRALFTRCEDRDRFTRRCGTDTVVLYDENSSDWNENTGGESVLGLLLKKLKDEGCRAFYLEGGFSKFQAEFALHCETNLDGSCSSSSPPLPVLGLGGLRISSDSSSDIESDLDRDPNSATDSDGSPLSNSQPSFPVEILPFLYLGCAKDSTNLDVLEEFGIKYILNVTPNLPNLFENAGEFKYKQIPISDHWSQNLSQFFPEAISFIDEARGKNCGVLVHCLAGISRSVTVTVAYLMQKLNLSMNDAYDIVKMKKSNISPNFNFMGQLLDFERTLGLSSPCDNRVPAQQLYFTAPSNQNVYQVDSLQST

Estrogen receptor = biological target: T3, Estrogen receptor (Homo sapiens, UniProt P03372);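 also: potency for inhibiting coactivator peptide recruitment to the receptor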
T3 sequence (P03372 whole entry): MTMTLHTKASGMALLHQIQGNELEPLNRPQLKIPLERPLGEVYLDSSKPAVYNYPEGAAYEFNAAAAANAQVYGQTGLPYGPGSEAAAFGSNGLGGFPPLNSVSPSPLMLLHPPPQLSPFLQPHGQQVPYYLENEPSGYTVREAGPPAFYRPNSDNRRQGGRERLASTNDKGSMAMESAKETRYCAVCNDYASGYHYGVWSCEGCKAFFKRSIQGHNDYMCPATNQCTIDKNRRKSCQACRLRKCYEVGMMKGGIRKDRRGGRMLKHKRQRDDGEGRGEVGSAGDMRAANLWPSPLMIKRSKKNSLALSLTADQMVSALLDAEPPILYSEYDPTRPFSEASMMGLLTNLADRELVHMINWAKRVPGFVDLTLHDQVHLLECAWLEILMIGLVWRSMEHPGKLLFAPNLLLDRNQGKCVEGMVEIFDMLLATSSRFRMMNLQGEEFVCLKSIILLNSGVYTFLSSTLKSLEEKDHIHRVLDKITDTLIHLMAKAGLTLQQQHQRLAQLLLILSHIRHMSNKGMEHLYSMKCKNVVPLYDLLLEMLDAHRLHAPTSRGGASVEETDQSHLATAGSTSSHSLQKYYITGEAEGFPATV

Estrogen receptor beta [11] = biological target: T4, Estrogen receptor beta (Homo sapiens, UniProt Q92731);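 also: recombinant ER-beta bound to coactivator SRC1 peptide in presence of estradiol agonist; inhibitors block coactivator peptide binding and lower the FRET signal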
T4 sequence (Q92731 whole entry, the tested form may be a part): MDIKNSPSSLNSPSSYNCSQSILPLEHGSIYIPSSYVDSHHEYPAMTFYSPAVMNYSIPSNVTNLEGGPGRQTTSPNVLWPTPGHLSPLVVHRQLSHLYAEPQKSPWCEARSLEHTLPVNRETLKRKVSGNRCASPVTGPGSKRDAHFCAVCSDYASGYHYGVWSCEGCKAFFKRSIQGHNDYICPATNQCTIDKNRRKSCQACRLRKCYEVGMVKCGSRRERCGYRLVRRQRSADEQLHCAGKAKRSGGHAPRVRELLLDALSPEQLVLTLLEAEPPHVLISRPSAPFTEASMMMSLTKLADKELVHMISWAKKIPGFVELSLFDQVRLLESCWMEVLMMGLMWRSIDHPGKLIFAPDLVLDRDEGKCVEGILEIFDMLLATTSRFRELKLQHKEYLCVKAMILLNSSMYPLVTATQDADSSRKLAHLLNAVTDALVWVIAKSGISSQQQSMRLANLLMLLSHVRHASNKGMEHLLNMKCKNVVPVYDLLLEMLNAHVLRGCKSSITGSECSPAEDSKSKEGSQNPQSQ

[12] = biological target: T5, Carboxy-terminal domain RNA polymerase II polypeptide A small phosphatase 1 (Homo sapiens, UniProt Q9GZU7); assay: CTDSP1 inhibitors, concentration-response, biochemical, absorbance readout, ultra-high-throughput screen actives (AID 540297); type: functional
T5 sequence (Q9GZU7 whole entry): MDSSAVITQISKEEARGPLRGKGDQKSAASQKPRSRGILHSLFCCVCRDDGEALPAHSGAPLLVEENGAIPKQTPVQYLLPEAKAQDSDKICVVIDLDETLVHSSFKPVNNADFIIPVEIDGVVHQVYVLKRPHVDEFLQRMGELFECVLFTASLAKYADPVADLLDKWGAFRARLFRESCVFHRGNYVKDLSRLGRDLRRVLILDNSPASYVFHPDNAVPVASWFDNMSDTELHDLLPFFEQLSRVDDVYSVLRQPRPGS

Genome polyprotein = Genome polyprotein (Hepatitis C virus, UniProt Q2Q167); assay: disruption of hepatitis C core self-association – biochemical, TR-FRET, dose response (AID 2159); design: species or system Hepacivirus hominis;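 also: blocks dimerization of HCV core protein measured by TR-FRET between tagged core106 pairs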
Sequence of Genome polyprotein (Q2Q167 whole entry): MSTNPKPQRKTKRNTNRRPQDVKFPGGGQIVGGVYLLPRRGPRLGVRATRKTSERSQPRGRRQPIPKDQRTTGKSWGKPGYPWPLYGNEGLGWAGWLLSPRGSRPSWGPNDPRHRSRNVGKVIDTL

Estrogen receptor beta [13] = biological target: T4, Estrogen receptor beta; assay: blockers of SRC-3 recruitment to ERβ – biochemical, ELISA, streptavidin-HRP readout, orthogonal assay, confirmation (AID 1060)
[14] = biological target: Protein-tyrosine kinase 2-beta (Homo sapiens, UniProt Q14289);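 also: potency of inhibitors of PYK2 kinase phosphorylation of poly-GT substrate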
Beta-galactosidase = Beta-galactosidase (Escherichia coli, UniProt Q8VNN2); assay: PubChem AID 485352; type: functional
Sequence of Beta-galactosidase (Q8VNN2 whole entry): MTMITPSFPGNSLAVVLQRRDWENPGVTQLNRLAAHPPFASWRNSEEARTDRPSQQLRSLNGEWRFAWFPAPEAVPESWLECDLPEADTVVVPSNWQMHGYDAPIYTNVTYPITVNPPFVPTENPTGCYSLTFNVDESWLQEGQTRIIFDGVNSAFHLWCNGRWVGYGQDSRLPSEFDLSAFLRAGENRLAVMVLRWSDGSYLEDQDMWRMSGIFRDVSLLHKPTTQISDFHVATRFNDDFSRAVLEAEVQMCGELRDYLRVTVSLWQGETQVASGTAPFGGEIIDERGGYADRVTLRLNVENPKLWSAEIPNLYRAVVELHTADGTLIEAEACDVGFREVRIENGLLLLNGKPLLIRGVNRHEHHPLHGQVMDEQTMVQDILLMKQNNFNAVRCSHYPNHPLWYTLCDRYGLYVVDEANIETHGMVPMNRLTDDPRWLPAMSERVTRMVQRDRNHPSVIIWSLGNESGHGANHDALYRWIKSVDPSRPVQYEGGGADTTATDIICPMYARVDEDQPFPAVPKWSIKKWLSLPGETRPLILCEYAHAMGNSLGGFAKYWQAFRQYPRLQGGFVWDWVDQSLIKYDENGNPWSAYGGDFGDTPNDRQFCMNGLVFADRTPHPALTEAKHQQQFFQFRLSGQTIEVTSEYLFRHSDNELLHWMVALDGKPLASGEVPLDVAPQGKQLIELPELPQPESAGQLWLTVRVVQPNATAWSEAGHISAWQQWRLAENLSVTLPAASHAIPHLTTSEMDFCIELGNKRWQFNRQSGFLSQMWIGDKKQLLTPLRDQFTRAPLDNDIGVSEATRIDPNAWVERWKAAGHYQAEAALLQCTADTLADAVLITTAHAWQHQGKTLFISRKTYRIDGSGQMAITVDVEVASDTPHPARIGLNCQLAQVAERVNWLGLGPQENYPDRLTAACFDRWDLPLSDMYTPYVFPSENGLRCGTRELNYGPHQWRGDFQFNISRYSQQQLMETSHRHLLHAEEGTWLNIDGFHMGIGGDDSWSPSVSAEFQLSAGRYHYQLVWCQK

[15] = biological target: T6, Type-1 angiotensin II receptor (Homo sapiens, UniProt P30556); assay: antagonism of angiotensin II type 1 receptor – cell-based, uHTS hits, selectivity assay for APJ receptor antagonist project, dose response (AID 463214); type: functional;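 also: antagonist potency against angiotensin II stimulated AT1 response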
T6 sequence (P30556 whole entry): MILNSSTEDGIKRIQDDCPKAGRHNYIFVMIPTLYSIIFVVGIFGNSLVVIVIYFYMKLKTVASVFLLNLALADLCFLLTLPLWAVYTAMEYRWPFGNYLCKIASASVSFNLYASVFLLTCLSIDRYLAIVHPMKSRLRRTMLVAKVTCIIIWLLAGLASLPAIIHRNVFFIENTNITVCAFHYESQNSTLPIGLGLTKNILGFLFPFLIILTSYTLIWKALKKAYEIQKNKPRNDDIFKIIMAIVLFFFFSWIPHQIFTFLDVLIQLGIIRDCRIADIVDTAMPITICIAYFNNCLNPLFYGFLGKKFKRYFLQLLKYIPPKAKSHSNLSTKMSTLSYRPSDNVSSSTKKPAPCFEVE

Cc1ccsc1C1NC(=O)c2c(sc3c2CCCC3)N1 (centres undefined)
EC50 [1]: 0.643 µM (active)
EC50 [2]: 0.571 µM (active)
EC50 (H4): 48.3 µM (active)
EC50 [3]: < 0.1 µM (inconclusive)
EC50 [4]: 1.12 µM (active)

Cc1ccc(NC(=O)CSc2ccc(-c3ccccn3)nn2)cc1F
IC50 [5]: > 111 µM (not active)
IC50 [6]: > 16.4 µM (not active)

CCOC(=O)c1c(-c2ccc(C)cc2)csc1NC(=O)C1CC=CCC1C(=O)O (centres undefined)
AC50 (Cytochrome P450 2C9): 25.1 µM (inconclusive)
IC50 (Procathepsin L): > 59.6 µM (not active)
IC50 (Aspartyl aminopeptidase): > 73.5 µM (not active)
IC50 (Leucine aminopeptidase): 4.8 µM (active)
AC50 (Cytochrome P450 2C19): 28.2 µM (inconclusive)

CC(=O)N1CCN(c2ccccc2NC(=O)COc2cc(C)ccc2C(C)C)CC1
IC50 [7]: 36.7 µM (not active)
EC50 [8]: 3.67 µM (active)

O=C1Nc2ccccc2SC(c2ccccc2)C1O (centres undefined)
IC50 [9]: 35.4 µM (inactive)
IC50 [10]: > 10 µM (not active)
IC50 (Estrogen receptor): 3.02 µM (active)
IC50 (Estrogen receptor beta [11]): < 1.56 µM (active)
IC50 [12]: 5.33 µM (active)
IC50 (Genome polyprotein): > 49.8 µM (not active)
IC50 (Estrogen receptor beta [13]): 0.161 µM (not active)

CCOCCO/C(O)=C1\C(C)=NC2=C(C(=O)CC(c3cccs3)C2)C1c1ccsc1 (centres undefined)
IC50 [14]: > 69.5 µM (not active)
EC50 (Beta-galactosidase): > 40 µM (inactive)
IC50 [15]: > 40 µM (not active)
